Experimental data published in PMC7934871 (JCI Insight, 2021).

Columns and labels:
pY705-STAT3 = test: Western blotting of p-STAT3 in HCT116 cells; type: cell-based, human
Description: Figure 3 PS-acet.-STAT3 peptide inhibits STAT3 activity and downregulates the expression of STAT3 targets. (A) Downregulation of STAT3 activity and its downstream target proteins shown in human HCT116 colorectal cancer cells by Western blotting (data represent 1 of the 3 experiments, n = 3). PO-acet.-STAT3 and PS-STAT3-K685R peptides were used in parallel as controls. (B) STAT3 inhibition regulated the expression of proliferation and apoptotic genes, assessed by real-time quantitative PCR. Data present mean ± SD, n = 3 independent experiments, 1-way ANOVA; ***P < 0.005; **P < 0.01. […] For p53 promoter assay, data represent 3 replicates in 3 independent experiments (n = 9). For cell proliferation assay, data represent 3 independent experiments. SD is shown (n = 3). One-way ANOVA; ***P < 0.005; **P < 0.01.
Whole cell lysates or tissue homogenates were prepared by using RIPA lysis buffer (50 mM Tris at pH 7.4, 150 mM NaCl, 1 mM EDTA, 0.5% NP-40, 1 mM NaF, 15% glycerol, and 20 mM β-glycerophosphate). A protease inhibitor cocktail (Mini Protease Inhibitor Cocktail; Roche) and a tyrosine phosphatase inhibitor, sodium orthovanadate (Na3VO4, 1 mM), were added freshly to the lysis buffer. Protein amounts were determined by BCA using a Thermo Fisher Scientific kit. Normalized protein amounts were subjected to an SDS-PAGE and transferred onto a nitrocellulose membrane for Western blotting. […] The protein levels for STAT1 (sc-346, E-23), STAT3 (sc-482, C-20), STAT5 (sc-74442, A-9), Crm1 (exportin 1) (sc-5595, H-300), CAS (exportin 2) (sc-271537, H-2), exportin 5 (sc-66885, H-300), and exportin 7 (sc-98639, H-82) were determined using antibodies from Santa Cruz Biotechnology Inc. Anti–exportin 3 (exportin T, 630622, LOS1 05-1525), anti–exportin 4 (3499-1), and anti–exportin 6 (11408-1-AP) were from MilliporeSigma, Epitomics, and Proteintech, respectively. […]
(§1) Supplemental Figure 4 (related to Figure 1). […] Phosphorylation of STAT3 at Y705 and STAT5 at Y694 was detected by Western blotting after 48 hours treatment of PS-acet.-STAT3 peptide (1 µM) or napabucasin (1 µM) in HCT116 cells. […]

pY694-STAT5 = test: Western blotting of p-STAT5 in HCT116 cells; type: cell-based, human; conditions: HCT116, 1 µM, 48 hours
Experimental: Whole cell lysates or tissue homogenates were prepared by using RIPA lysis buffer (50 mM Tris at pH 7.4, 150 mM NaCl, 1 mM EDTA, 0.5% NP-40, 1 mM NaF, 15% glycerol, and 20 mM β-glycerophosphate). A protease inhibitor cocktail (Mini Protease Inhibitor Cocktail; Roche) and a tyrosine phosphatase inhibitor, sodium orthovanadate (Na3VO4, 1 mM), were added freshly to the lysis buffer. Protein amounts were determined by BCA using a Thermo Fisher Scientific kit. Normalized protein amounts were subjected to an SDS-PAGE and transferred onto a nitrocellulose membrane for Western blotting. Proteins were visualized with a chemiluminescent detection kit (Pierce, Thermo Fisher Scientific). The protein levels for STAT1 (sc-346, E-23), STAT3 (sc-482, C-20), STAT5 (sc-74442, A-9), Crm1 (exportin 1) (sc-5595, H-300), CAS (exportin 2) (sc-271537, H-2), exportin 5 (sc-66885, H-300), and exportin 7 (sc-98639, H-82) were determined using antibodies from Santa Cruz Biotechnology Inc. Anti–exportin 3 (exportin T, 630622, LOS1 05-1525), anti–exportin 4 (3499-1), and anti–exportin 6 (11408-1-AP) were from MilliporeSigma, Epitomics, and Proteintech, respectively. […]
as §1

[1] = Systemic toxicity in mice; type: in vivo; conditions: 1 mg/kg i.v. every other day for 3 weeks, n = 3
Experimental: To evaluate the potential toxicity associated with systemic treatments of PS-peptide, PS-acet.-STAT3 peptide, PS-oligo, naive peptide, and PO- or PS-acet.-STAT3 peptide were given to the mice at 1 mg/kg through i.v. every other day for 3 weeks.
Supplemental Figure 10 (related to Figure 3). The systemic toxicity of PS-acet.-peptide.
The bodyweight (A), blood count (B) and organ morphology (H&E staining; spleen, kidney and liver) (C) of the mice (n=3) treated with HBSS (1), PS-oligo (2), naïve peptide (3), PO-peptide (4) or PS-peptide (5) every other day at 1 mg/kg (per treatment) for 3 weeks.
Individual value of each mouse is shown as a dot on the graph. The red lines on each graph in (B) indicate the normal ranges. Blood count was done by a veterinary hematology analyzer. The images shown in (C) are the represented H&E section from three mice (n=3). Enlarged view are shown below as indicated. Scale bar, 50 µm.
Aftabizadeh and Li et al., Figure S10

splenic CD8+ T cells = test: CD8+ T cell activation and ELISA (IFN-γ, IL-2); type: cell-based, mouse; conditions: anti-CD3/CD28 activated, 20 ng/mL IL-6, 1 μM peptide, 48 hours, ELISA, n = 4
Experimental: Data are representative of 3 independent experiments (n = 3). […] Data represent 4 independent experiments (n = 4). SD is shown. One-way ANOVA; ****P < 0.001.
CD8^+ T cells were isolated from C57BL/6 mice spleens as described above. A 96-well plate (Cellstar) was precoated with 2 μg/mL anti-CD3 antibody (BioLegend, clone 145-2c11, 100331) at 4°C overnight (BioLegend), and 1–2 × 10^5 cells were seeded into each well, followed by adding 2 μg/mL soluble CD28 (BioLegend, clone 37-51, 102012) and stimulation with 20 ng/mL IL-6. PS-unacet.-STAT3, PS-STAT3-K685R, and PO- or PS-acet.-STAT3 peptides at a concentration of 1 μM were added to the cells. Peptide treatment was repeated on the following day. Control cells were treated with HBSS. After 48 hours’ treatment with peptides at 37°C, supernatants were assessed for IFN-γ and IL-2 production by R&D, Bio-Techne, kits (DY402 and DY406), according to manufacturer’s instruction.

[2] = test system: CRC patient primary tumor spheres
Experimental: TAMRA-acet.-STAT3 (red fluorescence) and PO-FAM-acet.-STAT3 (green fluorescence)
peptides were incubated with patient primary tumor sphere for 4 hours and the cell penetration
was visualized by confocal microscopy. Scale bar: 50 µm.
(D) The primary CRC tumor cells derived from PDX were treated with different concentrations of
PO- or PS-acet.-STAT3 peptide as indicated for 3 days. The cell viability was measured by
CellTiter Glo assay and normalized with vehicle (HBSS) treatment. Data represent 3
independent experiments (n=3). SD is shown. Unpaired Student’s t-test ****; P< 0.001; **, P<
(E) Gene expression of MYC, MMP9 and BIRC5 was detected by qPCR and normalized with
ACTB after vehicle, 1 µM of PO-or PS-acet.-STAT3 peptide treatment with CRC PDX tumor
cells. Data represent 3 independent experiments (n=3). SD is shown. One-way ANOVA. ****; P<

Substance: PDIPKEEAFGK685(Ac)YCRPESQEHPC-linker-T*C*C*A*T*G*A*G*C*T*T*C*C*T*G*A*T*G*C*T [PS-acet.-STAT3 peptide]
- phosphorylated STAT3 (p-STAT3, Y705) level (pY705-STAT3; HCT116, 1 µM, 48 hours): reduced
- STAT3 activation (pY705-STAT3) (pY705-STAT3; HCT116, approximately 1 μM): significant downregulation
- p-STAT5 (Y694) level (pY694-STAT5): not
- behavior, body weight, blood counts [1]: No behavior changes, body weight loss, or abnormal blood counts
- morphology and cell death in liver, spleen, kidney tissues (H&E) [1]: no significant morphology change or cell death
- interferon-γ (IFN-γ) and IL-2 production by CD8+ T cells (splenic CD8+ T cells): induced
- effects on cell proliferation and gene expression of STAT3 target genes in patient primary tumor spheres ([2]; 3 days, CellTiter Glo, 1 µM, qPCR of MYC, MMP9, BIRC5, n = 3): significant inhibitory effects
- cell permeability in patient primary tumor spheres ([2]; not told): high cell permeability
